Assay results published in PubChem BioAssay (NCI).
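Protocol summary: plate cells (96-well), add compound at 5 concentrations, incubate 48 h, interpolate endpoints linearly. At the TGI there is no net growth.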

Tests used:
Experiment in all cases: inhibition of tumour cell growth, NCI panel, 48 h
SF-268 CNS = test system: SF-268 CNS
OVCAR-8 ovarian = test system: OVCAR-8 ovarian
MDA-MB-231 breast = test system: MDA-MB-231 breast
HCC-2998 colon = test system: HCC-2998 colon
OVCAR-3 ovarian = test system: OVCAR-3 ovarian
HL-60(TB) leukemia = test system: HL-60(TB) leukemia
SF-295 CNS = test system: SF-295 CNS
SNB-75 CNS = test system: SNB-75 CNS
CCRF-CEM leukemia = test system: CCRF-CEM leukemia
NCI-H522 lung = test system: NCI-H522 lung
IGROV1 ovarian = test system: IGROV1 ovarian

## CC(=O)NNC=N/C(C#N)=C(\N)C#N
SF-268 CNS
  TGI: > 100 µM
OVCAR-8 ovarian
  TGI: > 100 µM
MDA-MB-231 breast
  TGI: > 100 µM
HCC-2998 colon
  TGI: > 100 µM
OVCAR-3 ovarian
  TGI: > 100 µM
HL-60(TB) leukemia
  TGI: > 100 µM
SF-295 CNS
  TGI: > 100 µM
SNB-75 CNS
  TGI: > 100 µM
CCRF-CEM leukemia
  TGI: > 100 µM
NCI-H522 lung
  TGI: > 100 µM
IGROV1 ovarian
  TGI: > 100 µM

## Cn1c(=O)nc2n(CCO)c(-c3ccccc3)c(-c3ccccc3)nc-2c1=O
SF-268 CNS
  TGI: > 100 µM
OVCAR-8 ovarian
  TGI: > 100 µM
MDA-MB-231 breast
  TGI: > 100 µM
HCC-2998 colon
  TGI: > 100 µM
OVCAR-3 ovarian
  TGI: > 100 µM
SF-295 CNS
  TGI: > 100 µM
SNB-75 CNS
  TGI: > 100 µM
CCRF-CEM leukemia
  TGI: > 100 µM
NCI-H522 lung
  TGI: > 100 µM
IGROV1 ovarian
  TGI: > 100 µM

## COc1ccccc1NC(=O)C(C#N)=C(SC)SC
SF-268 CNS
  TGI: > 100 µM
MDA-MB-231 breast
  TGI: > 100 µM
HCC-2998 colon
  TGI: > 100 µM
OVCAR-3 ovarian
  TGI: > 100 µM
HL-60(TB) leukemia
  TGI: > 100 µM
SF-295 CNS
  TGI: > 100 µM
CCRF-CEM leukemia
  TGI: > 100 µM
NCI-H522 lung
  TGI: > 100 µM
IGROV1 ovarian
  TGI: > 100 µM

## CC(=O)Nc1c(C)cc(OCC(=O)O)cc1C
SF-268 CNS
  TGI: > 100 µM
OVCAR-8 ovarian
  TGI: > 100 µM
MDA-MB-231 breast
  TGI: > 100 µM
HCC-2998 colon
  TGI: > 100 µM
OVCAR-3 ovarian
  TGI: > 100 µM
HL-60(TB) leukemia
  TGI: > 100 µM
SF-295 CNS
  TGI: > 100 µM
SNB-75 CNS
  TGI: > 100 µM
CCRF-CEM leukemia
  TGI: > 100 µM
NCI-H522 lung
  TGI: > 100 µM
IGROV1 ovarian
  TGI: > 100 µM

## CC1=NC(=Cc2ccc(Cl)cc2)C(=O)N1n1c(-c2ccccc2)nc2ccccc2c1=O
SF-268 CNS
  TGI: > 100 µM
OVCAR-8 ovarian
  TGI: > 100 µM
MDA-MB-231 breast
  TGI: > 100 µM
HCC-2998 colon
  TGI: > 100 µM
HL-60(TB) leukemia
  TGI: 78.6 µM
SF-295 CNS
  TGI: > 100 µM
SNB-75 CNS
  TGI: 99.6 µM
CCRF-CEM leukemia
  TGI: > 100 µM
NCI-H522 lung
  TGI: 43 µM
IGROV1 ovarian
  TGI: > 100 µM

## Oc1ccccc1C=Nc1ccc(Oc2ccc(Cl)cc2)c(Cl)c1
SF-268 CNS
  TGI: 43.5 µM
OVCAR-8 ovarian
  TGI: 57.9 µM
MDA-MB-231 breast
  TGI: 40.4 µM
HCC-2998 colon
  TGI: 45.7 µM
OVCAR-3 ovarian
  TGI: 38.5 µM
HL-60(TB) leukemia
  TGI: 65.4 µM
SF-295 CNS
  TGI: 48.8 µM
SNB-75 CNS
  TGI: 58.6 µM
CCRF-CEM leukemia
  TGI: 54.3 µM
NCI-H522 lung
  TGI: 31.6 µM
IGROV1 ovarian
  TGI: > 100 µM

## Fc1ccc(C(OCCN2CCC3CCC(C2)N3CCCc2ccccc2)c2ccc(F)cc2)cc1 (stereo not drawn)
SF-268 CNS
  TGI: 19.8 µM
OVCAR-8 ovarian
  TGI: 4.93 µM
MDA-MB-231 breast
  TGI: 13.6 µM
HCC-2998 colon
  TGI: 4.05 µM
OVCAR-3 ovarian
  TGI: 14.8 µM
HL-60(TB) leukemia
  TGI: 5.21 µM
SF-295 CNS
  TGI: 8.45 µM
SNB-75 CNS
  TGI: 10.3 µM
CCRF-CEM leukemia
  TGI: 11.3 µM
NCI-H522 lung
  TGI: 12.1 µM
IGROV1 ovarian
  TGI: 17.7 µM

## CC[C@@]1(O)C(=O)OCc2c1c(Cl)c1n(c2=O)Cc2cc3ccccc3nc2-1
SF-268 CNS
  TGI: 67.7 µM
OVCAR-8 ovarian
  TGI: 22.9 µM
MDA-MB-231 breast
  TGI: > 100 µM
HCC-2998 colon
  TGI: 80.6 µM
OVCAR-3 ovarian
  TGI: 22.1 µM
HL-60(TB) leukemia
  TGI: > 26.3 µM
SF-295 CNS
  TGI: 18 µM
SNB-75 CNS
  TGI: 12.7 µM
CCRF-CEM leukemia
  TGI: > 29 µM
NCI-H522 lung
  TGI: 20.8 µM
IGROV1 ovarian
  TGI: 42.9 µM

## C/C(C=O)=N\Nc1cc(C)c2ccccc2n1
SF-268 CNS
  TGI: 43.2 µM
OVCAR-8 ovarian
  TGI: 34.8 µM
MDA-MB-231 breast
  TGI: 32.3 µM
HCC-2998 colon
  TGI: 29.3 µM
OVCAR-3 ovarian
  TGI: 29.1 µM
SF-295 CNS
  TGI: 39.4 µM
SNB-75 CNS
  TGI: 30.3 µM
CCRF-CEM leukemia
  TGI: 29.3 µM
NCI-H522 lung
  TGI: 47.1 µM
IGROV1 ovarian
  TGI: 32.1 µM

## O=C1/C(=C/c2cccc([N+](=O)[O-])c2)CCCc2ccccc21
SF-268 CNS
  TGI: 19.3 µM
OVCAR-8 ovarian
  TGI: 28.9 µM
MDA-MB-231 breast
  TGI: 34.2 µM
HCC-2998 colon
  TGI: 22 µM
OVCAR-3 ovarian
  TGI: 26.5 µM
HL-60(TB) leukemia
  TGI: 21.6 µM
SF-295 CNS
  TGI: 27.7 µM
SNB-75 CNS
  TGI: 29.9 µM
CCRF-CEM leukemia
  TGI: 10.5 µM
NCI-H522 lung
  TGI: 19.9 µM
IGROV1 ovarian
  TGI: 25.8 µM

## N#C/C(=C\c1ccc(Cl)cc1)c1nc2ccccc2c(=O)[nH]1
SF-268 CNS
  TGI: > 100 µM
OVCAR-8 ovarian
  TGI: > 100 µM
MDA-MB-231 breast
  TGI: > 100 µM
HCC-2998 colon
  TGI: > 100 µM
HL-60(TB) leukemia
  TGI: > 100 µM
SF-295 CNS
  TGI: > 100 µM
SNB-75 CNS
  TGI: 61.7 µM
CCRF-CEM leukemia
  TGI: > 100 µM
NCI-H522 lung
  TGI: > 100 µM
IGROV1 ovarian
  TGI: > 100 µM

## N#Cc1c(-c2ccccc2)c(C#N)c(=O)n(NS(=O)(=O)c2ccccc2)c1O
SF-268 CNS
  TGI: > 100 µM
OVCAR-8 ovarian
  TGI: > 100 µM
MDA-MB-231 breast
  TGI: > 100 µM
HCC-2998 colon
  TGI: > 100 µM
HL-60(TB) leukemia
  TGI: > 100 µM
SF-295 CNS
  TGI: > 100 µM
SNB-75 CNS
  TGI: > 100 µM
CCRF-CEM leukemia
  TGI: > 100 µM
NCI-H522 lung
  TGI: > 100 µM
IGROV1 ovarian
  TGI: > 100 µM

## CCN(CC)c1ccc(/C=C/C2=NN(c3cccc(S(=O)(=O)O)c3)C3(C2)C(Cl)C(=O)N3c2nc3ccccc3s2)cc1 (stereo not drawn)
SF-268 CNS
  TGI: 41.5 µM
OVCAR-8 ovarian
  TGI: 31.4 µM
MDA-MB-231 breast
  TGI: 27 µM
HCC-2998 colon
  TGI: 21.4 µM
OVCAR-3 ovarian
  TGI: 17.4 µM
HL-60(TB) leukemia
  TGI: 4.01 µM
SF-295 CNS
  TGI: 27.7 µM
SNB-75 CNS
  TGI: 25.3 µM
CCRF-CEM leukemia
  TGI: 4.47 µM
NCI-H522 lung
  TGI: 3.57 µM
IGROV1 ovarian
  TGI: 17 µM

## CN(CCO)CC(=O)CC(O)(C(F)(F)F)C(F)(F)F
OVCAR-8 ovarian
  TGI: > 100 µM
MDA-MB-231 breast
  TGI: > 100 µM
HCC-2998 colon
  TGI: > 100 µM
OVCAR-3 ovarian
  TGI: 87 µM
HL-60(TB) leukemia
  TGI: 73.5 µM
SF-295 CNS
  TGI: > 100 µM
SNB-75 CNS
  TGI: 51.7 µM
CCRF-CEM leukemia
  TGI: 91.9 µM
NCI-H522 lung
  TGI: > 100 µM
IGROV1 ovarian
  TGI: > 100 µM

## CC1C2CC(C(C3C(=O)C4CC3C(C)(C)C4C)C2=O)C1(C)C (stereo not drawn)
SF-268 CNS
  TGI: > 100 µM
OVCAR-8 ovarian
  TGI: > 100 µM
MDA-MB-231 breast
  TGI: > 100 µM
HCC-2998 colon
  TGI: > 100 µM
OVCAR-3 ovarian
  TGI: > 100 µM
HL-60(TB) leukemia
  TGI: > 100 µM
SF-295 CNS
  TGI: > 100 µM
SNB-75 CNS
  TGI: > 100 µM
CCRF-CEM leukemia
  TGI: > 100 µM
NCI-H522 lung
  TGI: > 100 µM
IGROV1 ovarian
  TGI: > 100 µM

## COc1ccc2oc(=N)c(C(N)=S)cc2c1
SF-268 CNS
  TGI: 64.3 µM
OVCAR-8 ovarian
  TGI: 38.9 µM
MDA-MB-231 breast
  TGI: 54.1 µM
HCC-2998 colon
  TGI: 33.6 µM
HL-60(TB) leukemia
  TGI: > 100 µM
SF-295 CNS
  TGI: > 100 µM
SNB-75 CNS
  TGI: 74.8 µM
CCRF-CEM leukemia
  TGI: > 100 µM
NCI-H522 lung
  TGI: 35.3 µM
IGROV1 ovarian
  TGI: > 100 µM

## COc1ccc(CSCc2cc(OC)c(OC)c(OC)c2)cc1
SF-268 CNS
  TGI: > 100 µM
OVCAR-8 ovarian
  TGI: > 31.6 µM
MDA-MB-231 breast
  TGI: > 100 µM
HCC-2998 colon
  TGI: > 31.6 µM
OVCAR-3 ovarian
  TGI: > 100 µM
HL-60(TB) leukemia
  TGI: > 100 µM
SF-295 CNS
  TGI: > 100 µM
SNB-75 CNS
  TGI: > 100 µM
CCRF-CEM leukemia
  TGI: > 100 µM
NCI-H522 lung
  TGI: > 100 µM
IGROV1 ovarian
  TGI: > 100 µM

## CCOC(=O)CNC(=O)C(CSC(=O)N(O)c1ccc(Br)cc1)NC(=O)CCC(N)C(=O)OCC (stereo not drawn)
SF-268 CNS
  TGI: > 50 µM
OVCAR-8 ovarian
  TGI: > 50 µM
MDA-MB-231 breast
  TGI: > 50 µM
HCC-2998 colon
  TGI: > 50 µM
OVCAR-3 ovarian
  TGI: > 50 µM
HL-60(TB) leukemia
  TGI: 0.00622 µM
SF-295 CNS
  TGI: > 50 µM
CCRF-CEM leukemia
  TGI: > 50 µM
NCI-H522 lung
  TGI: > 50 µM
IGROV1 ovarian
  TGI: > 50 µM
